From patent US20240216312A1, “PPAR-AGONISTS FOR USE IN THE TREATMENT OF LIVER FAILURE” (Genfit, priority 2021, published 2024)
Like-named read-outs stand apart in the source and are kept apart here.

Key:
THP-1 cells = assay: PMA-induced differentiation of THP-1 monocytes into macrophages, TNFα and MCP1 secretion (HTRF); format: cell-based; conditions: Homo sapiens, PMA-stimulated THP1 monocytes, 24 h
Description: In order to test the efficacy of the compounds to inhibit the activation of the immune system, we used the human monocytic cell line THP-1 (Sigma). THP1 monocytes were cultured in RPMI 1640 with L-glutamine medium (#10-040-CV, Corning) supplemented with 10% fetal bovine serum (FBS, #10270, Gibco), 1% penicillin/streptomycin (#15140, Gibco) and 25 mM Hepes (H0887, Sigma) in a 5% C02 incubator at 37° C.
To evaluate the effect of the compounds on monocyte differentiation, 2.5×10^4 THP-1 cells were cultured for 24 h in a 384-well plate in FBS-deprived culture medium containing Cpd.1 in dose ranges, as well as 5 or 100 ng/mL phorbol 12-myristate 13-acetate (PMA, #P8139, Sigma), as indicated, to induce differentiation into macrophages.
Tumor necrosis α (TNFα) and monocyte chemoattractant protein 1 (MCP1) were measured in cell supernatants by Homogeneous Time Resolved Fluorescence (HTRF, #62[…] for TNFα, and 62HCCL2PEG for MCP1, Cisbio). Fluorescence was measured with Infinite 500 (#30019337, Tecan) to determine the concentration of cytokines.

THP1 macrophages [1] = assay: LPS (E. coli) activation of THP1 differentiated macrophages, TNFα and MCP1 secretion; format: cell-based, human; conditions: compound 24 h, then 100 ng/mL LPS E. coli 6 h
Description: (§1) In order to test the efficacy of the compounds on macrophage activation and pro-inflammatory cytokine production, 2.5×10^4 THP-1 cells were cultured in a 384-well plate and treated with 100 ng/mL PMA (#P8139, Sigma) for 24 h to induce differentiation into macrophages.
Then, medium was removed and FBS-deprived medium containing the compound of formula (I) was added for 24 h. Finally, THP1 macrophages were stimulated with 100 ng/mL LPS (E. coli 055:B5, #L4005, Sigma) for 6 h.

[2] = test system: LPS-induced endotoxemia, Sprague Dawley rats; assay: LPS-induced endotoxemia in rats, serum IL6 and IL1β (ELISA); format: in vivo; conditions: rat, 3 mg/kg/day oral 3 days before LPS 1 mg/kg i.p., 3 h after LPS
Description: To evaluate the efficacy of the compounds to reduce the cytokine production in response to LPS-induced endotoxemia, male Sprague Dawley rats of 250-275 g from Janvier Labs (France) received a single intraperitoneal injection of 1 mg/kg LPS (Escherichia coli 0111:B4, #L2630, Sigma).
Cpd.1 (3 mg/kg/day) or vehicle (Labrafil M 1944 CS, #3063, Gattefossé) was administered by oral gavage during the 3 days before LPS injection. Rats were euthanized by cervical dislocation 3 hours after treatment. Blood samples were obtained from retro-orbital sinus puncture on animals slightly asleep with isoflurane (Isoflurin 1000 mg/g, GTIN 03760087152678, Axience) just before sacrifice.
The serum concentrations of interleukin-6 (IL6) and interleukin-1β (L1β) were determined by ELISA (SR6000B and SRLB00, respectively, R&D Systems).

[3] = test system: LPS-induced endotoxemia, Sprague Dawley rats; assay: LPS-induced endotoxemia in rats, hepatic markers and serum TNFα; format: in vivo; conditions: rat, 3 mg/kg/day oral 3 days before LPS, 3 h after LPS
[4] = test system: LPS/GaIN acute liver failure, C57BL/6J mice; assay: LPS/GalN model of acute liver failure in mice, hepatic gene expression, serum cytokines and albumin; format: in vivo, mouse; conditions: 3 mg/kg/day oral 3 days before LPS/GaIN, 4 h after injection
[5] = test system: CLP induced polymicrobial sepsis, C57BL6J mice; assay: Cecal ligation and puncture (CLP) sepsis model in mice, survival; format: in vivo; conditions: mouse CLP
Description: This study aims to investigate the efficacy of Cpd.1 in cecal ligation and puncture (CLP) model in C57BL6J (BL6) male mice. The efficacy of the test compound was evaluated based on the survival rate of the animals within the study period.
C57BL6J male mice (supplier Janvier—France) at 9 weeks of age and weighing 23-25 g on arrival were anesthetized with 250 μL of xylazine/ketamine solution (20 mg/100 g body weight) by intraperitoneal route. A 1-1.5 cm abdominal midline incision was made, and the caecum was located and tightly ligated at half the distance between distal pole and the base of the cecum with 4-0 silk suture (mild grade). The caecum was punctured through-and-through once with a 21-gauge needle from mesenteric toward antimesenteric direction after medium ligation. A small amount of stool was extruded to ensure that the wounds were patent. Then the cecum was replaced in its original position within the abdomen, which was closed with sutures and wound clips. Mice were followed for body weight evolution and mortality rate until […].
Cpd.1 or vehicle (Labrafil M 1944 CS, #3063, Gattefossé) was administered at 0.3 mg/kg, p.o. for three days before CLP surgery. The day of CLP (day 0), Cpd.1 was administrated 1 h before surgery and pursued daily until day 6. Experiment was terminated at day 7. […]
Body weight and survival rate were measured for 7 days.

THP1 macrophages [6] = assay: LPS (Klebsiella pneumoniae) activation of THP1 macrophages, MCP1 and TNFα secretion (HTRF); format: cell-based, human
Description: as §1
Then, medium was removed and FBS-deprived medium containing 1 or 10 μM compound was added for 24 h. Finally, THP1 macrophages were stimulated for 6 h with 100 ng/mL LPS (Klebsiella pneumoniae, #L4268, Sigma-Aldrich).
Monocyte chemoattractant protein 1 (MCP1) and Tumor necrosis α (TNFα) were measured in cell supernatants by Homogeneous Time Resolved Fluorescence (HTRF, #62[…] for TNFα, and 62HCCL2PEG for MCP1, Cisbio). Fluorescence was measured with Infinite 500 (#30019337, Tecan) to determine the concentration of cytokines.
In order to evaluate the effect of the compounds according to the invention on LPS-induced cytokines production by macrophages, the percentage of inhibition over the vehicle condition were calculated for each compound at 1 and 10 μM.

HepG2 cells = assay: Staurosporin-induced apoptosis in HepG2 cells, caspase 3/7 activity; format: cell-based, human; conditions: 16 h pre-treatment, then 10 μM staurosporin 4 h
Description: In order to evaluate the effect of the compounds on human hepatocytes that undergo a cellular stress induced by staurosporin, the human hepatoblastoma-derived HepG2 cell line (ECACC, #85011430, Sigma-Aldrich) was cultured in high-glucose DMEM medium (#41965, Gibco, France) supplemented with 10% of fetal bovine serum (FBS, #10270, Gibco), 1% penicillin/streptomycin (#15140, Gibco), 1% sodium pyruvate (#11360, Gibco) and 1% MEM non-essential amino acids (#11140, Gibco) in a 5% CO2 incubator at 37° C.
To evaluate caspase 3/7 activity, which is a surrogate marker of apoptosis, 1.5×10^4 cells were plated in a 384-well plate (#781080, Greiner, France). After cell adherence (8 hours), cells were serum starved for 16 h in the presence of 0.3 μM of compounds or vehicle. Cpd.1 was also used at 3 and 10 μM. Thereafter, cells were treated with 10 μM staurosporin (#569397, Sigma-Aldrich, Germany) supplemented with compound for additional 4 hours before cell lysis and caspase activity measurement.
Caspase 3/7 activity was measured using Caspase Glow™ 3/7 assay (#G8093, Promega, USA). Luminescence was measured using a Spark microplate reader (#30086376, Tecan, USA). The amount of luminescence (RLU) directly correlates with caspase 3/7 activity.

COC(CCc1cc(C)c(OC(C)(C)C(=O)O)c(C)c1)c1ccc(OC(F)(F)F)cc1 (stereo not shown) [Cpd. 1, 2-[4-(3-methoxy-3-(4-(trifluoromethoxy)phenyl)propyl)-2,6-dimethylphenoxy]-2-methylpropanoic acid]
inhibition at 1 µM (THP-1 cells; read-out: inhibition of MCP1 content in the supernatant): ~50% | inhibition at 1 µM (THP-1 cells; read-out: inhibition of TNFα content in the supernatant): ~50% | reduction of TNFα secretion (THP1 macrophages [1]): potent at reducing | reduction of MCP1 secretion (THP1 macrophages [1]; all doses tested): overpassing the untreated condition | reduction of serum IL1β level [2]: 31% | reduction of serum IL6 level [2]: 40% | serum total bilirubin level compared to vehicle [3]: completely restored | decrease of hepatic Ccl2 mRNA expression ([4]; mouse liver): 52% | decrease of hepatic IL1b mRNA expression ([4]; mouse liver): 46% | decrease of hepatic IL6 mRNA expression ([4]; mouse liver): 52% | decrease of hepatic TNF mRNA expression ([4]; mouse liver): 40% | reduction of hepatic Cd68 mRNA expression ([4]; mouse liver): 41% | reduction of circulating CCL2 level compared to vehicle ([4]; mouse serum): 59% | reduction of circulating IL6 level compared to vehicle ([4]; mouse serum): 62% | reduction of circulating TNFα level compared to vehicle ([4]; mouse serum): 51% | side effects after each administration ([5]; 0.3 mg/kg p.o.): No side effect | increase in survival rate compared to CLP+Vehicle group ([5]; 0.3 mg/kg p.o. from 3 days before surgery, daily, Day 7): 47% | inhibition at 1 µM (THP1 macrophages [6]; Homo sapiens, THP-1, 1 μM, 24 h, then LPS Klebsiella 6 h, read-out: % inhibition of MCP1 secretion over mean Veh.): 108% | inhibition at 10 µM (THP1 macrophages [6]; Homo sapiens, THP-1, 10 μM, 24 h, then LPS Klebsiella 6 h, read-out: % inhibition of MCP1 secretion over mean Veh.): 120% | production of MCP1 induced by LPS Klebsiella (THP1 macrophages [6]; THP1 macrophages, in words, concentration not given): overpassing the untreated condition | reduction of staurosporin-induced caspase activity (HepG2 cells; 0.3 μM to 10 μM): dose-dependent manner | inhibition at 0.3 µM (HepG2 cells; Homo sapiens, HepG2, 0.3 μM, read-out: % Inhibition of caspase activity over mean Veh.): 26%
